According to PMC8230565, “Bisavenathramide Analogues as Nrf2 Inductors and Neuroprotectors in In Vitro Models of Oxidative Stress and Hyperphosphorylation” (Antioxidants, 2021):

Tests used:
[1] = Ferric reducing antioxidant power (FRAP) assay; set-up: key to FRAP TEAC: trolox equivalents (TEAC), relative to trolox; conditions: for FRAP TEAC: 30 µM, relative to trolox; for FRAP nmol Fe2+ at 30 µM: 30 µM compound, n in brackets
Method: A ferric reducing antioxidant power (FRAP) kit assay purchased from Sigma-Aldrich (Madrid, Spain) was employed for the experiments. The antioxidant solutions, FRAP assay buffer solution, FeCl3 solution, and FRAP probe solution were kept in ice during the preparation of the plate. A calibration standard curve was prepared by using the 2 mM ferrous standard solution provided in the FRAP kit assay. Appropriate aliquots of this solution were taken and diluted up to a 200 μL final volume with FRAP buffer. The final ferrous concentrations measured in the well were: 0, 20, 40, 60, 80, and 100 μM. Each concentration value was prepared and measured by triplicate. Stock solutions of compounds 3, as well as reference compounds trolox and ferulic acid, were freshly prepared in 95% ethanol at […]. Aliquots of 10 μL of compounds 3 and the reference compounds were mixed with 19 μL FeCl3 solution and 19 μL FRAP probe solution, and then completed to a final volume of 200 μL with FRAP assay buffer solution. The final concentration of antioxidants and references was 30 μM. Compounds 3, reference compounds, as well as the corresponding blank solutions (one for each compound to be assayed, avoiding the chromogenic FRAP probe), and positive control were thoroughly mixed in vortex for 1–2 min with the reaction chromogenic media, and then were incubated under darkness at 37 °C in the dry bath, and using the device for support well-plates. Each compound to be assayed and the reference antioxidant compounds were prepared and measured by triplicate. The absorbance values were measured at 594 nm after 5 min of reaction and, to assure complete reaction, the absorbance values after 60 min of incubation at 37 °C in the dry bath were also measured. The absorbance values of the sample antioxidant compounds were corrected by subtracting the corresponding absorbance values of the blanks, and then they were introduced in the calibration curve and the ferrous equivalents were determined. The reference antioxidants employed for this assay were trolox and ferulic acid, which were obtained from Sigma-Aldrich (Madrid, Spain). Ultrapure water was obtained from a Milli-Q Direct 8 system (Millipore, Molsheim, France).
In order to achieve a broader insight into the antioxidant profile of our compounds, we also examined them using a single electron transfer (SET)-based method, namely the ferric reducing antioxidant power (FRAP) assay, which measures the ability of an antioxidant to reduce the ferric ion in the TPTZ (2,4,6-tri(2-pyridyl)-1,3,5-triazine)-Fe(III) complex.

Nrf2 = Nrf2 induction, luciferase assay in AREc32 cells; type: cell-based; conditions: Arec32, 24 h, read-out: CD (concentration that doubles luciferase activity)
Method: AREc32 cells (kindly shared by Dr. Professor Ronald C. Wolf, University of Dundee, Dundee, UK) were grown in Dulbecco’s modified Eagle medium (DMEM) with glutamax, supplemented with 10% fetal bovine serum (FBS), 1% of antibiotics penicillin–streptomycin, and geneticin (0.8 mg/mL, G418) (GIBCO, Madrid, Spain). Cells were harvested in a […] flask with 11 mL of the specified medium, incubated at 37 °C and 5% CO2, and they were transferred to a new flask every 4–6 days, when the confluence was around 80%. Cells were seeded in 96-well white plates (20,000 cells/well) using 100 μL/well. After 24 h, cells were treated with compounds at desired concentrations (1, 5, 10, 15 μM) for 24 h, including tert-butyl hydroquinone (TBHQ, 10 μM) as a positive control. Another 24 h later, luciferase activity was measured through a bioluminescence assay using a “Luciferase assay system” (Promega E1500, Madison, WI, USA), following the protocol given by the provider, and quantifying luminescence in an Orion II microplate luminometer (Berthold, Germany). Measurements were performed by duplicate, and the values were normalized to basal luminescence considered as 1. Nrf2 induction potency was expressed as CD values, i.e., the concentrations required to double the luciferase activity, and are calculated from dose–response curves generated by plotting fold induction of control conditions vs. compound concentration, and fitted by non-linear regression and data interpolated to value 2.
The ability of our compounds to induce Nrf2 was evaluated in the AREc32 cell line, an MCF7 stable clone that is transfected with eight copies of the luciferase reporter gene immediately after the ARE sequence. Therefore, Nrf2 activation and the subsequent transcription of the genes dependent on the ARE element also leads to expression of luciferase, which can be quantitated using a luminescence assay. AREc32 cells were incubated for 24 h with 0.3, 3, 10, 30, and 60 μM concentrations of compounds 3, and a luminescence measurement allowed CD values to be obtained. This parameter characterizes the Nrf2-inducing ability of each compound and represents the concentration required to double the luciferase activity compared to its basal expression.

SH-SY5Y cells [2] = assay: Neuroprotection against rotenone/oligomycin A in SH-SY5Y cells (MTT); type: cell-based; conditions: Homo sapiens, 24 h, 1 µM compound, rotenone 30 µM + oligomycin A 10 µM, read-out: % Neuroprotection ± SEM at 1 µM (rotenone/oligomycin A)
Method: To evaluate the compounds for their neuroprotective effect in an oxidative stress model, we selected the rotenone (30 μM) and oligomycin A (10 μM) (R/O) cocktail, which disturbs the flow of electrons in the mitochondrial respiratory chain. Similarly, SH-SY5Y cells were preincubated with compounds 3 at 1 μM for 24 h. Then, they were co-incubated in the presence of R/O for a further 24 h, evaluating cell viability by the MTT reduction method.
Thus, the R/O combination constitutes a good model of oxidative stress and neurodegeneration with a mitochondrial origin, and has been broadly employed to evaluate potential hit compounds for the treatment of neurodegenerative diseases. Furthermore, treatment of laboratory animals with rotenone is known to induce many features associated to Parkinson’s disease, such as selective nigrostriatal dopaminergic degeneration and the appearance of α-synuclein cytoplasmic inclusions, which are associated with oxidative damage.

SH-SY5Y cells [3] = assay: Neuroprotection against okadaic acid in SH-SY5Y cells (MTT); type: cell-based; conditions: for % neuroprotection against okadaic acid at 1 µM: Homo sapiens, SH-SY5Y, 18 h, 1 µM compound, okadaic acid 20 nM, read-out: % Neuroprotection ± SEM at 1 µM (okadaic acid)
Method: Neuroprotection studies against tau hyperphosphorylation exerted by okadaic acid (OA) were evaluated using the SH-SY5Y cell line as follows. […] After 18 h, cell viability was addressed by the MTT reduction method. MTT (5 mg/mL, 10 μL/well) was added and incubated for 2 h. Then, the medium was removed and the purple formazan crystals formed by viable cells were dissolved using 100 μL of DMSO. A FluoStar Optima spectrophotometer (BMG Labtech, Ortenberg, Baden-Württemberg, Germany) was used to measure the absorbance at 570 nm.
Okadaic acid is a potent inhibitor of protein phosphatase 2A (PP2A), thereby inducing tau hyperphosphorylation. For this reason, it can be employed as a model of neurodegenerative-disease-connected tau hyperphosphorylation, a well-known feature of Alzheimer’s disease, but present also in other NDDs, collectively known as tauopathies and characterized by the pathological aggregation of hyperphosphorylated tau in neurofibrillary tangles. […] Tau hyperphosphorylation is connected to oxidative stress, which activates p38 and deactivates calcineurin, a phosphatase involved in tau dephosphorylation by increasing RCAN1, its natural repressor [34, 35]. Indeed, hyperphosphorylation and oxidative stress have been proposed to generate a vicious circle that is critical to the advance of neurodegenerative tauopathies.

**Q.** With `COC(=O)C1=C(C)N(Cc2ccccc2)C(=O)/C1=C\c1ccccc1` [Compound 3a, Methyl (Z)-1-Benzyl-4-benzylidene-2-methyl-5-oxo-4,5-dihydro-1H-pyrrole-3-carboxylate] as the molecule, how does the “FRAP TEAC” value [1] read?
**A.** The value was 0.62.

**Q.** What about the EC (2-fold luciferase activity) (Nrf2) of the same molecule?
**A.** Its EC (2-fold luciferase activity) is 30.2 ± 1.89 µM.

**Q.** What about the % neuroprotection against rotenone/oligomycin A toxicity at 1 µM (SH-SY5Y cells [2]) of the same molecule?
**A.** The % neuroprotection against rotenone/oligomycin A toxicity at 1 µM was 44.3 ± 13.6%.

**Q.** What about the % neuroprotection against okadaic acid at 1 µM (SH-SY5Y cells [3]) of the same molecule?
**A.** The % neuroprotection against okadaic acid at 1 µM was 68 ± 22%.

**Q.** What does the source list for `COC(=O)C1=C(C)N(Cc2ccccc2)C(=O)/C1=C\c1ccc(OC)cc1` [Compound 3b, Methyl (Z)-1-Benzyl-4-(4-methoxybenzylidene)-2-methyl-5-oxo-4,5-dihydro-1H-pyrrole-3-carboxylate]?
**A.** FRAP nmol Fe2+ at 30 µM [1]: 1.44 ± 0.02 (3) nmol Fe^2+; FRAP TEAC [1]: 0.63; EC (2-fold luciferase activity) (Nrf2): 18 ± 1.84 µM; % neuroprotection against rotenone/oligomycin A toxicity at 1 µM (SH-SY5Y cells [2]): 68 ± 31.5%; % neuroprotection against okadaic acid at 1 µM (SH-SY5Y cells [3]): 54.1 ± 14.3%

**Q.** For `COC(=O)C1=C(C)N(Cc2ccccc2)C(=O)/C1=C\c1ccc(Cl)cc1` [Compound 3c, Methyl (Z)-1-Benzyl-4-(4-chlorobenzylidene)-2-methyl-5-oxo-4,5-dihydro-1H-pyrrole-3-carboxylate], which “FRAP nmol Fe2+ at 30 µM” value [1] is on record?
**A.** Its value is 1.41 ± 0.03 (3) nmol Fe^2+.

**Q.** And the “FRAP TEAC” value [1]?
**A.** Its value is 0.62.

**Q.** And the EC (2-fold luciferase activity) (Nrf2)?
**A.** The EC (2-fold luciferase activity) was 15 ± 0.8 µM.

**Q.** What about the % neuroprotection against rotenone/oligomycin A toxicity at 1 µM (SH-SY5Y cells [2]) of the same molecule?
**A.** Its % neuroprotection against rotenone/oligomycin A toxicity at 1 µM is greater than 90%.

**Q.** And the % neuroprotection against okadaic acid at 1 µM (SH-SY5Y cells [3])?
**A.** Its % neuroprotection against okadaic acid at 1 µM is 52.8 ± 9.96%.

**Q.** Which “FRAP nmol Fe2+ at 30 µM” value [1] does the source give for `COC(=O)C1=C(C)N(CCc2ccccc2)C(=O)/C1=C\c1ccc2c(c1)OCO2` [Compound 3d, Methyl (Z)-4-(Benzo[d](1,3)dioxol-5-ylmethylene)-2-methyl-5-oxo-1-phenethyl-4,5-dihydro-1H-pyrrole-3-carboxylate] here?
**A.** Its value is 1.41 ± 0.04 (3) nmol Fe^2+.

**Q.** And the “FRAP TEAC” value [1]?
**A.** Its value is 0.62.

**Q.** And the EC (2-fold luciferase activity) (Nrf2)?
**A.** The EC (2-fold luciferase activity) was 17.9 ± 8.58 µM.

**Q.** What about the % neuroprotection against rotenone/oligomycin A toxicity at 1 µM (SH-SY5Y cells [2]) of the same molecule?
**A.** Its % neuroprotection against rotenone/oligomycin A toxicity at 1 µM is 49.8 ± 9.46%.

**Q.** What about the % neuroprotection against okadaic acid at 1 µM (SH-SY5Y cells [3]) of the same molecule?
**A.** Its % neuroprotection against okadaic acid at 1 µM is 52.7 ± 17.2%.

**Q.** Which “FRAP nmol Fe2+ at 30 µM” value [1] does the source give for `COC(=O)C1=C(C)N(CCc2ccccc2)C(=O)/C1=C\c1ccc(OC)cc1OC` [Compound 3e, Methyl (Z)-4-(2,4-Dimethoxybenzylidene)-2-methyl-5-oxo-1-phenethyl-4,5-dihydro-1H-pyrrole-3-carboxylate] here?
**A.** The value was 1.44 ± 0.01 (3) nmol Fe^2+.

**Q.** What about the “FRAP TEAC” value [1] of the same molecule?
**A.** Its value is 0.63.

**Q.** And the EC (2-fold luciferase activity) (Nrf2)?
**A.** The EC (2-fold luciferase activity) was 10.4 ± 0.8 µM.

**Q.** And the % neuroprotection against rotenone/oligomycin A toxicity at 1 µM (SH-SY5Y cells [2])?
**A.** Its % neuroprotection against rotenone/oligomycin A toxicity at 1 µM is 50.3 ± 16.3%.

**Q.** What about the % neuroprotection against okadaic acid at 1 µM (SH-SY5Y cells [3]) of the same molecule?
**A.** The % neuroprotection against okadaic acid at 1 µM was 62.8 ± 8%.

**Q.** For `COC(=O)C1=C(C)N(CCc2ccccc2)C(=O)/C1=C\c1cc(OC)c(OC)cc1OC` [Compound 3f, Methyl (Z)-2-Methyl-5-oxo-1-phenethyl-4-(2,4,5-trimethoxybenzylidene)-4,5-dihydro-1H-pyrrole-3-carboxylate], which “FRAP nmol Fe2+ at 30 µM” value [1] is on record?
**A.** Its value is 1.42 ± 0.04 (3) nmol Fe^2+.

**Q.** What about the “FRAP TEAC” value [1] of the same molecule?
**A.** The value was 0.62.

**Q.** What about the EC (2-fold luciferase activity) (Nrf2) of the same molecule?
**A.** The EC (2-fold luciferase activity) was 31.1 ± 6.21 µM.

**Q.** And the % neuroprotection against rotenone/oligomycin A toxicity at 1 µM (SH-SY5Y cells [2])?
**A.** Its % neuroprotection against rotenone/oligomycin A toxicity at 1 µM is 51 ± 16.9%.

**Q.** What about the % neuroprotection against okadaic acid at 1 µM (SH-SY5Y cells [3]) of the same molecule?
**A.** The % neuroprotection against okadaic acid at 1 µM was 48.3 ± 11%.

**Q.** For `COC(=O)C1=C(C)N(CCc2ccccc2)C(=O)/C1=C\c1cc(OC)c(OC)c(OC)c1` [Compound 3g, Methyl (Z)-2-Methyl-5-oxo-1-phenethyl-4-(3,4,5-trimethoxybenzylidene)-4,5-dihydro-1H-pyrrole-3-carboxylate], which “FRAP nmol Fe2+ at 30 µM” value [1] is on record?
**A.** The value was 1.36 ± 0.10 (3) nmol Fe^2+.

**Q.** What about the “FRAP TEAC” value [1] of the same molecule?
**A.** Its value is 0.60.

**Q.** What about the % neuroprotection against rotenone/oligomycin A toxicity at 1 µM (SH-SY5Y cells [2]) of the same molecule?
**A.** The % neuroprotection against rotenone/oligomycin A toxicity at 1 µM was 74.5 ± 7.19%.

**Q.** What about the % neuroprotection against okadaic acid at 1 µM (SH-SY5Y cells [3]) of the same molecule?
**A.** Its % neuroprotection against okadaic acid at 1 µM is 65.7 ± 29.1%.

**Q.** With `COC(=O)C1=C(C)N(CCc2ccccc2)C(=O)/C1=C\c1ccc(OC)c(O)c1` [Compound 3h, Methyl (Z)-4-(3-Hydroxy-4-methoxybenzylidene)-2-methyl-5-oxo-1-phenethyl-4,5-dihydro-1H-pyrrole-3-carboxylate] as the molecule, how does the “FRAP nmol Fe2+ at 30 µM” value [1] read?
**A.** Its value is 1.63 ± 0.04 (3) nmol Fe^2+.

**Q.** And the “FRAP TEAC” value [1]?
**A.** Its value is 0.71.

**Q.** What about the EC (2-fold luciferase activity) (Nrf2) of the same molecule?
**A.** Its EC (2-fold luciferase activity) is 36.1 ± 418 µM.

**Q.** What about the % neuroprotection against rotenone/oligomycin A toxicity at 1 µM (SH-SY5Y cells [2]) of the same molecule?
**A.** Its % neuroprotection against rotenone/oligomycin A toxicity at 1 µM is 46.2 ± 18.9%.

**Q.** What about the “level of neuroprotection compared with melatonin / in words (okadaic acid)” value (SH-SY5Y cells [3]; 1 µM) of the same molecule?
**A.** Its value is “excellent neuroprotection”.

**Q.** And the % neuroprotection against okadaic acid at 1 µM (SH-SY5Y cells [3])?
**A.** The % neuroprotection against okadaic acid at 1 µM was 81.9 ± 28.5%.
